According to patent US6737383B1, “Herbicidal oxadiazolidines” (priority 1999, dated 2004):

Key:
green foxtail = assay: Test E green foxtail; format: in vivo, Setaria viridis; details: Postemergence
In short: (§1)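 For postemergence, application to 1- to 4-leaf plants growing in a 60:40 sandy loam–potting mix substrate. Formulation: non-phytotoxic solvent mixture plus surfactant. Untreated controls served as the reference for the visual rating after ~21–28 days.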

galium [1] = assay: Test E galium; format: in vivo, Galium aparine; details: Postemergence
In short: as §1

downy brome = assay: Test E downy brome; format: in vivo, Bromus tectorum; details: Postemergence; for Plant response rating, Downy brome: 0 to 100 scale
In short: as §1

galium [2] = assay: Test E galium; format: in vivo, Galium aparine; details: Preemergence
windgrass = assay: Test E windgrass; format: in vivo, Apera spica-venti; details: Preemergence
lambsquarters [3] = assay: Test E lambsquarters; format: in vivo, Chenopodium album; details: Preemergence
Italian ryegrass = assay: Test E Italian ryegrass; format: in vivo, Lolium multiflorum; details: Postemergence
Protocol: (§2) Compounds evaluated in this test were formulated in a non-phytotoxic solvent mixture which included a surfactant and applied to plants that were in the 1- to 4-leaf stage (postemergence application). A mixture of sandy loam soil and greenhouse potting mix in a 60:40 ratio was used for the postemergence test.
(§3) Plantings of these crops and weed species were adjusted to produce plants of appropriate size for the postemergence test. All plant species were grown using normal greenhouse practices. Crop and weed species include annual bluegrass (Poa annua), blackgrass (Alopecurus myosuroides), black nightshade (Solanum nigra), chickweed (Stellaria media), common poppy (Papaver rhoeas), deadnettle (Lamium amplexicaule), downy brome (Bromus tectorum), field violet (Viola arvensis), galium (Galium aparine), green foxtail (Setaria viridis), Italian ryegrass (Lolium multiflorum), jointed goatgrass (Aegilops cylindrica), kochia (Kochia scoparia), lambsquarters (Chenopodium album), littleseed canarygrass (Phalaris minor), rape (Brassica napus), redroot pigweed (Amaranthus retroflexus), Russian thistle (Salsola kali), scentless chamomile (Matricaria inodora), spring barley (Hordeum vulgare), sugar beet (Beta vulgaris), sunflower (Helianthus annuus), ivyleaf speedwell (Veronica hederaefolia), spring wheat (Triticum aestivum), winter wheat (Triticum aestivum), wild buckwheat (Polygonum convolvulus), wild mustard (Sinapis arvensis), wild oat (Avena fatua), windgrass (Apera spica-venti) and winter barley (Hordeum vulgare).
(§4) Treated plants and untreated controls were maintained in a greenhouse for approximately 21 to 28 days, after which all treated plants were compared to untreated controls and visually evaluated. […] A dash response (-) means no test result.

kochia = assay: Test E kochia; format: in vivo, Kochia scoparia; details: Postemergence
Protocol: as §2, §3, §4

sugar beet = assay: Test E sugar beet; format: in vivo, Beta vulgaris; details: Postemergence
Protocol: as §2, §3, §4

rape = assay: Test E rape; format: in vivo, Brassica napus; details: Postemergence
Protocol: […] A mixture of sandy loam soil and greenhouse potting mix in a 60:40 ratio was used for the postemergence test.
as §3, §4

redroot pigweed = assay: Test E redroot pigweed; format: in vivo, Amaranthus retroflexus; details: Postemergence
Protocol: as §2, §3, §4

wild mustard = assay: Test E wild mustard; format: in vivo, Sinapis arvensis; details: Postemergence
In short: as §1

blackgrass = assay: Test E blackgrass; format: in vivo, Alopecurus myosuroides; details: Postemergence
Protocol: as §2, §3, §4

common poppy = assay: Test E common poppy; format: in vivo, Papaver rhoeas; details: Postemergence
Protocol: as §2, §3, §4

lambsquarters [4] = assay: Test E lambsquarters; format: in vivo, Chenopodium album; details: Postemergence
In short: as §1

littleseed canarygrass = assay: Test E littleseed canarygrass; format: in vivo, Phalaris minor; details: Preemergence
wild buckwheat = assay: Test E wild buckwheat; format: in vivo, Polygonum convolvulus; details: Preemergence
black nightshade [5] = assay: Test E black nightshade; format: in vivo, Solanum nigra; details: Preemergence
black nightshade [6] = assay: Test E black nightshade; format: in vivo, Solanum nigra; details: Postemergence
Protocol: as §2, §3, §4

[7] = Rate 250 g/ha, 0 to 100 scale (0 no effect, 100 complete control)
[8] = Rate 500 g/ha, 0 to 100 scale, 0 no effect, 100 complete control
[9] = Rate 125 g/ha, 0 to 100 scale (0 no effect, 100 complete control)
[10] = Rate 500 g/ha, 0 to 100 scale where 0 is no effect and 100 is complete control

CC(C)N(C(=O)n1oc(=O)n(C(C)C)c1=O)c1ccc(F)cc1F [Compound 109]
60: Plant response rating Lambsquarters (lambsquarters [3]; [9]) | Plant response rating, Rape (rape; [8]) | Plant response rating, LS canarygrass (littleseed canarygrass; Rate 250 g/ha, 0 to 100 scale) | Plant response rating, Blk nightshade (black nightshade [6]; [8])
35: Plant response rating, Sugar beet (sugar beet; [7])
0: Plant response rating, Downy brome (downy brome; Rate 125 g/ha) | Plant response rating, Downy brortie (downy brome; [7]) | Plant response rating, Downy brome (downy brome; Rate 500 g/ha, 0 no effect, 100 complete control)
90: Plant response rating, Wild buckwheat (wild buckwheat; [10]) | Plant response rating, Blk nightshade (black nightshade [5]; Rate 250 g/ha, 0 to 100 scale) | Plant response rating, Blk nightshade (black nightshade [5]; [10])
30: Plant response rating, Green foxtail (green foxtail; Rate 125 g/ha, 0 to 100 scale) | Plant response rating, Galium (galium [1]; [7]) | Plant response rating, Kochia (kochia; Rate 125 g/ha, 0 to 100 scale) | Plant response rating, Kochia (kochia; [7]) | Plant response rating, Sugar beet (sugar beet; Rate 125 g/ha, 0 to 100 scale) | Plant response rating, Sugar beet (sugar beet; [8]) | Plant response rating, Blackgrass (blackgrass; Rate 125 g/ha, 0 to 100 scale) | Plant response rating, Comnion poppy (common poppy; Rate 125 g/ha, 0 to 100 scale) | Plant response rating Lambsquarters (lambsquarters [4]; [7]) | Plant response rating Lambsquarters (lambsquarters [4]; [8])
40: Plant response rating, Wild mustard (wild mustard; Rate 125 g/ha, 0 to 100 scale) | Plant response rating, Blk nightshade (black nightshade [6]; Rate 125 g/ha, 0 to 100 scale) | Plant response rating, Blk nightshade (black nightshade [6]; [7])
85: Plant response rating, Wild buckwheat (wild buckwheat; Rate 250 g/ha, 0 to 100 scale)
75: Plant response rating, Blk nightshade (black nightshade [5]; [9])
20: Plant response rating, Redroot pigweed (redroot pigweed; Rate 125 g/ha, 0 to 100 scale) | Plant response rating, Wild mustard (wild mustard; [8]) | Plant response rating Lambsquarters (lambsquarters [4]; Rate 125 g/ha, 0 to 100 scale) | Plant response rating, Wild buckwheat (wild buckwheat; [9])
15: Plant response rating, Redroot pigweed (redroot pigweed; [7]) | Plant response rating, Redroot pigweed (redroot pigweed; [8])
70: Plant response rating, Blackgrass (blackgrass; [8])
50: Plant response rating, Galium (galium [1]; Rate 125 g/ha, 0 to 100 scale) | Plant response rating, Galium (galium [1]; [8]) | Plant response rating, Kochia (kochia; [8]) | Plant response rating, Rape (rape; Rate 125 g/ha, 0 to 100 scale) | Plant response rating, Rape (rape; [7]) | Plant response rating, Wild mustard (wild mustard; [7]) | Plant response rating, LS canarygrass (littleseed canarygrass; [9]) | Plant response rating, LS canarygrass (littleseed canarygrass; [10])
10: Plant response rating, I. Ryegrass (Italian ryegrass; Rate 125 g/ha, 0 to 100 scale) | Plant response rating, I. Ryegrass (Italian ryegrass; [7]) | Plant response rating, Blackgrass (blackgrass; [7]) | Plant response rating, Common poppy (common poppy; [7]) | Plant response rating, Common poppy (common poppy; [8])
100: Plant response rating, Galium (galium [2]; [9]) | Plant response rating, Galium (galium [2]; Rate 250 g/ha, 0 to 100 scale) | Plant response rating, Galium (galium [2]; [10]) | Plant response rating, Windgrass (windgrass; [9]) | Plant response rating, Windgrass (windgrass; [10]) | Plant response rating Lambsquarters (lambsquarters [3]; Rate 250 g/ha, 0 to 100 scale) | Plant response rating Lambsquarters (lambsquarters [3]; [10])
65: Plant response rating, Green foxtail (green foxtail; [7]) | Plant response rating, I. Ryegrass (Italian ryegrass; [8])
80: Plant response rating, Green foxtail (green foxtail; [8])
